We go through three compounds from ChEMBL document CHEMBL1150655, “Tupuseleiamides and basiliskamides, new acyldipeptides and antifungal polyketides produced in culture by a Bacillus laterosporus isolate obtained from a tropical marine habitat” (J Nat Prod, 2002).

SMILES strings stand for the structures. In brackets after ≈: the same amount, converted by molar mass.

A short description of data set [1]: Cytotoxicity against human diploid fibroblast cells at 100 ug/ml. In kind it is cell-based.
A short description of data set [2]: Cytotoxicity against human diploid fibroblast cells assessed as cytopathic effect at 12.5 ug/ml. In kind it is cell-based.
In data set [3] the test system is Candida albicans. Put plainly: Antimicrobial activity against Candida albicans by standard agar dilution method. The class given is functional. Background: In agar dilution, organisms are placed on agar that contains the substance at set levels.
For data set [4], the system named is Aspergillus fumigatus. In words: Antimicrobial activity against Aspergillus fumigatus by standard agar dilution method. In kind it is functional.

Take `C[C@@H]1[C@H](O)[C@@H](C)/C=C/C=C/C=C/C=C/C=C/C=C/C=C/[C@H](O[C@@H]2O[C@H](C)[C@@H](O)[C@H](N)[C@@H]2O)C[C@@H]2O[C@](O)(C[C@@H](O)C[C@@H](O)[C@H](O)CC[C@@H](O)C[C@@H](O)CC(=O)O[C@H]1C)C[C@H](O)[C@H]2C(=O)O` [AMPHOTERICIN B]: the Activity result in data set [1] and in data set [2] was “Toxic” each time.

With `CC[C@@H](C)[C@H](OC(=O)/C=C/c1ccccc1)[C@H](C)[C@H](O)C/C=C/C=C\C(N)=O` [BASILISKAMIDE A], the MIC – broadly, the lowest concentration that inhibits growth of the organism – in data set [3] was determined as 1 µg/mL (≈ 2.59 µM); in data set [4], 2.5 µg/mL (≈ 6.49 µM).

For the compound `CC[C@@H](C)[C@H](O)[C@H](C)[C@@H](C/C=C/C=C\C(N)=O)OC(=O)/C=C/c1ccccc1` [BASILISKAMIDE B], the results for the minimum inhibitory concentration (MIC) in data set [3] and in data set [4] were 3.1 µg/mL (≈ 8.04 µM) and 5 µg/mL (≈ 13 µM), respectively.
